Assay: pharmacological and clinical studies (summary statements)
Assay type: in vivo
Conditions: presence of R-citalopram
Description: This may be shown in functional in-vivo pharmacological models and studies of 5-HT-reuptake effect and or in behaviour models, for example depression models.

## CN(C)CCC[C@]1(c2ccc(F)cc2)OCc2cc(C#N)ccc21 [R-citalopram]
  impact on the effect of escitalopram: negative impact on the effect of escitalopram

— patent publication US20040198809A1 (priority 2001, published 2004)
